Assay results as given in ChEMBL document CHEMBL1133910, “N-hydroxyformamide peptidomimetics as TACE/matrix metalloprotease inhibitors: oral activity via P1' isobutyl substitution” (Bioorg Med Chem Lett, 2001).
The source made the active and inactive calls. No cut-off for these calls is given here.

Legend:
[1] = target: Matrix metalloproteinase-9 (Homo sapiens, UniProt P14780); experiment: Inhibition of Matrix metalloprotease-9
[2] = target: T1, Disintegrin and metalloproteinase domain-containing protein 17 (Homo sapiens, UniProt P78536); experiment: Inhibition of Tumor necrosis factor alpha converting enzyme
T1 sequence (P78536 whole entry, the tested form may be a part): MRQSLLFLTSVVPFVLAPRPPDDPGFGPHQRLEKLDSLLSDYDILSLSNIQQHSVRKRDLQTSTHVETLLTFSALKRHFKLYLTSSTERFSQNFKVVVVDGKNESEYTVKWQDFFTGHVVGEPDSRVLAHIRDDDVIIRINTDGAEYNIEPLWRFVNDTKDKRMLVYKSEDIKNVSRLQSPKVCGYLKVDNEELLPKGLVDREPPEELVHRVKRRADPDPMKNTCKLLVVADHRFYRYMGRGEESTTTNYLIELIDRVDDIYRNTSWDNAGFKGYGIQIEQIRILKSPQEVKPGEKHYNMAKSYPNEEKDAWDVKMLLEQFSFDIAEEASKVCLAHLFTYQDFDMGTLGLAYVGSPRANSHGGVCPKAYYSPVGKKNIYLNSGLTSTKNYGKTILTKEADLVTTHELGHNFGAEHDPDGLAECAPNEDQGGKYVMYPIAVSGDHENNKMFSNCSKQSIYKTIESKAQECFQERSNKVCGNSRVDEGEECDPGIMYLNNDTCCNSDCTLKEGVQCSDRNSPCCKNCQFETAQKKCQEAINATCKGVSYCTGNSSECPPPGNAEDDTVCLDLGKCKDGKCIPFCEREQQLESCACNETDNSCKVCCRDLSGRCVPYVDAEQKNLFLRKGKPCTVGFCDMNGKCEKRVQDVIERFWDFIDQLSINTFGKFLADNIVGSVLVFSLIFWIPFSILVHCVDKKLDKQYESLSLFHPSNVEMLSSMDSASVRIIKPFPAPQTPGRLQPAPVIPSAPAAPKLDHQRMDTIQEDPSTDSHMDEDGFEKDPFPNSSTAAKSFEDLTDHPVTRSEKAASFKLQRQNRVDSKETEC

[3] = Compound was evaluated for inhibition of cellular release of TNF-alpha from MonoMac-6 cells; format: functional, cell-based; details: Homo sapiens, MONO-MAC-6
[4] = target: T2, Stromelysin-1 (Homo sapiens, UniProt P08254); experiment: Inhibition of matrix metalloprotease-3 (MMP3)
T2 sequence (P08254 whole entry): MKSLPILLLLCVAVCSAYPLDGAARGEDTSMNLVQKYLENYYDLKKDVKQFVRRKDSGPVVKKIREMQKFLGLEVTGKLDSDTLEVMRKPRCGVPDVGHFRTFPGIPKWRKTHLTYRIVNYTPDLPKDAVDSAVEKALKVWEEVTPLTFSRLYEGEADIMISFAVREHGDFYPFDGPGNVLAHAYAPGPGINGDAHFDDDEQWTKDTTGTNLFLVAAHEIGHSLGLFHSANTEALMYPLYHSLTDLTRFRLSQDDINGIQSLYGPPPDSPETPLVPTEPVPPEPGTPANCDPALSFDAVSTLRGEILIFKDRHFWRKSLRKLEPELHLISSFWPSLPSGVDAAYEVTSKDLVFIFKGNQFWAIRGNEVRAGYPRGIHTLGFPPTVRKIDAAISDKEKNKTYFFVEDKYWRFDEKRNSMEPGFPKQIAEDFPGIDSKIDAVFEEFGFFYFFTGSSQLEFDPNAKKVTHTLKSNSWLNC

[5] = target: T3, Interstitial collagenase (Homo sapiens, UniProt P03956); experiment: Inhibition of Matrix metalloprotease-1
T3 sequence (P03956 whole entry): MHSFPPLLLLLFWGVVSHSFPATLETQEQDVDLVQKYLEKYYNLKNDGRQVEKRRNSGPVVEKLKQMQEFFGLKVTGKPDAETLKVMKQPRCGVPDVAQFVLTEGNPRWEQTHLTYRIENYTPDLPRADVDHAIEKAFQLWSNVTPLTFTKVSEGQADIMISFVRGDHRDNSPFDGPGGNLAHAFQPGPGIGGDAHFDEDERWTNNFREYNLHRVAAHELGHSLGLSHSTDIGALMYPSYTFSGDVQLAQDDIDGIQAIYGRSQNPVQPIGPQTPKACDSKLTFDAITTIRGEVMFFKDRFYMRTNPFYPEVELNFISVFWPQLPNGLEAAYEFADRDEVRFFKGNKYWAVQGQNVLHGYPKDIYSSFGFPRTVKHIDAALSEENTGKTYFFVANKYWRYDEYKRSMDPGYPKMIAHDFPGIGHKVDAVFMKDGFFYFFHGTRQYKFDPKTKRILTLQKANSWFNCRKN

[6] = system: Mus musculus; experiment: In vivo inhibition of Murine Lipopolysaccharide induced plasma TNF on peroral administration of the compound; format: functional; parameters: concentration or dose not given beside the values
[7] = target: T2, Stromelysin-1; experiment: Inhibition of Matrix metalloprotease-3
[8] = system: Mus musculus; experiment: In vivo inhibition of Murine Lipopolysaccharide induced plasma TNF on peroral administration of the compound; IA means inactive; format: functional, organism-based
[9] = Bioavailability by intravenous administration of 1.2 mg/kg in dog; format: ADME, organism-based, Canis lupus familiaris; details: in vivo
[10] = Clearance by intravenous administration of 1.2 mg/kg in dog; format: ADME, organism-based, Canis lupus familiaris; parameters: dose 1.2 mg/kg, route intravenous; details: in vivo
[11] = Area under curve was determined for the compound by intravenous administration of 1.2 mg/kg in dog; format: ADME, organism-based, Canis lupus familiaris; parameters: dose 1.2 mg/kg, route intravenous; details: in vivo
[12] = Maximum concentration by intravenous administration of 1.2 mg/kg in dog; format: ADME, organism-based, Canis lupus familiaris; parameters: dose 1.2 mg/kg, route intravenous; details: in vivo
[13] = Area under curve was determined for the compound by intravenous administration of 3.4 mg/kg in rat; format: ADME, organism-based; parameters: dose 3.4 mg/kg, route intravenous; details: in vivo
[14] = Half life by intravenous administration of 1.2 mg/kg in dog; format: ADME, organism-based, Canis lupus familiaris; parameters: dose 1.2 mg/kg, route intravenous; details: in vivo
[15] = Maximum concentration by intravenous administration of 3.4 mg/kg in rat; format: ADME, organism-based; parameters: dose 3.4 mg/kg, route intravenous; details: in vivo
[16] = Clearance by intravenous administration of 3.4 mg/kg in rat; format: ADME, organism-based; parameters: dose 3.4 mg/kg, route intravenous; details: in vivo
[17] = Half life by intravenous administration of 3.4 mg/kg in rat; format: ADME, organism-based; parameters: dose 3.4 mg/kg, route intravenous; details: in vivo
[18] = Bioavailability by intravenous administration of 3.4 mg/kg in rat; format: ADME, organism-based; details: in vivo
[19] = system: Mus musculus; experiment: Percent inhibition of Murine Lipopolysaccharide induced plasma TNF on peroral administration of the compound; format: functional
[20] = system: Mus musculus; experiment: In vivo inhibition of Murine Lipopolysaccharide induced plasma TNF on peroral administration of the compound; IA means Inactive; format: functional, organism-based
[21] = target: T1, Disintegrin and metalloproteinase domain-containing protein 17; experiment: Inhibition of TNF-alpha converting enzyme (TACE)

Sequence of Matrix metalloproteinase-9 (P14780 whole entry, the tested form may be a part): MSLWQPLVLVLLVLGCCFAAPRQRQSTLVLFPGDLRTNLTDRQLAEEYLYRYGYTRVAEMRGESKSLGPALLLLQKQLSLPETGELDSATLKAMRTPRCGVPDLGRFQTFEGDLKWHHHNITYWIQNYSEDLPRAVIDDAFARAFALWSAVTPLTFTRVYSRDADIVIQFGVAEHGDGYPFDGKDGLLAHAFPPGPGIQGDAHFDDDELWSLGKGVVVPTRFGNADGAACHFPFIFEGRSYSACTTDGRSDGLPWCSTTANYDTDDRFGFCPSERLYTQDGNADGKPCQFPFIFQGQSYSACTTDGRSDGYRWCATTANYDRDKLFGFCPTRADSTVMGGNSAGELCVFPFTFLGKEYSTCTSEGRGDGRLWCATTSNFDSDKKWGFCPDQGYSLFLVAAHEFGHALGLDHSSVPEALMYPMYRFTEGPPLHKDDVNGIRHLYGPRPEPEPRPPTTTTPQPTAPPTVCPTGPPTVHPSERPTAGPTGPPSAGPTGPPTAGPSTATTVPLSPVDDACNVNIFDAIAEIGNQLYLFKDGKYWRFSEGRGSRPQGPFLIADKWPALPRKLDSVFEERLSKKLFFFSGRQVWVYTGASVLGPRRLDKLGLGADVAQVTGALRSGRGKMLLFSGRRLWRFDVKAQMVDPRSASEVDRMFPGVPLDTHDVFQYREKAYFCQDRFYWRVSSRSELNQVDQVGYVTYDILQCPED

Ki [1] [µM]	IC50 [3] [µM]	Ki [4] [µM]	Ki [5] [µM]	Ki [7] [µM]	SMILES	Ki [2] [µM]	Inhibition [6] [%]	also measured
0.073	1.41	0.038	0.055	–	CCC(C)[C@H](NC(=O)[C@H](CC(C)C)[C@H](CC)N(O)C=O)C(=O)Nc1ccccn1 (stereo not given in full)	0.031	62	–
0.033	3.07	–	0.181	0.406	CC(C)C[C@@H](C(=O)N[C@H](C(N)=O)C(C)(C)C)[C@H](C)N(O)C=O	0.156	–	–
0.089	0.304	0.153	0.047	–	CC[C@@H]([C@@H](CC(C)C)C(=O)N[C@H](C(=O)Nc1ccccn1)C(C)(C)C)N(O)C=O	0.029	61	–
0.021	2.95	–	0.017	2.32	CNC(=O)[C@@H](NC(=O)[C@H](CC(C)C)[C@H](C)N(O)C=O)C(C)(C)C	0.142	–	–
0.029	0.27	–	0.041	0.093	CC[C@H](C)C(NC(=O)[C@H](CC(C)C)[C@H](C)N(O)C=O)C(=O)Nc1nccs1 (single isomer, unassigned)	0.02	48	–
0.024	0.092	0.045	0.042	–	CC[C@H](C)[C@H](NC(=O)[C@H](CC(C)C)[C@H](CC)N(O)C=O)C(=O)Nc1nccs1	0.011	48	–
0.028	0.2	0.135	0.016	–	CC[C@@H]([C@@H](CC(C)C)C(=O)N[C@H](C(=O)Nc1nccs1)C(C)(C)C)N(O)C=O	0.016	52	–
0.098	3.96	–	0.17	0.354	CC(C)C[C@@H](C(=O)N[C@@H](CC(C)(C)C)C(=O)Nc1nccs1)[C@H](C)N(O)C=O	0.064	–	inhibition [8]: inactive
0.034	0.245	–	0.027	0.437	CC(C)C[C@@H](C(=O)N[C@H](C(=O)Nc1nccs1)C(C)(C)C)[C@H](C)N(O)C=O	0.02	–	bioavailability [9]: 44%; clearance [10]: 0.6 L/h/kg; AUC [11]: 2.1 µg·h/mL; Cmax [12]: 4.53 µg/mL; AUC [13]: 0.957 µg·h/mL; half-life [14]: 2.8 h; Cmax [15]: 2.33 µg/mL; clearance [16]: 3.72 L/h/kg; half-life [17]: 3.4 h; bioavailability [18]: 26%; Inhibition [19]: 60%
0.017	1.69	–	0.097	0.08	CC(C)C[C@H](NC(=O)[C@H](CC(C)C)[C@H](C)N(O)C=O)C(=O)Nc1nccs1	0.055	–	inhibition [8]: inactive
0.017	0.681	–	0.036	0.12	CC(C)C[C@@H](C(=O)N[C@H](C(=O)Nc1nccs1)C(C)C)[C@H](C)N(O)C=O	0.027	61	–
0.002	5.72	–	0.002	0.31	CNC(=O)[C@@H](NC(=O)[C@@H](CC(=O)NO)CC(C)C)C(C)(C)C [RO-319790]	–	–	inhibition [20]: inactive; Ki [21]: 0.087 µM
